Measured values as given in patent US12180226B2, “Spirotricycle RIPK1 inhibitors and methods of uses thereof” (Merck Sharp & Dohme LLC, priority 2021, dated 2024).
pEC50: −log10 of the molar value. Structures can show the parent of a compound that is named as a salt.

Molecular target: RIPK1 (recombinant GST-RIPK1 kinase domain, residues 1-327) (Homo sapiens (Human), UniProt Q13546)
Test: RIPK1-ADP-Glo Enzymatic Assay
Assay type: biochemical
Conditions: ADP-Glo; 25 nM GST-RIPK1, 300 μM ATP; assay lower limit ~25 nM; read-out: RIPK1 V0 Ec50
Method in brief: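 Luminescent ADP-Glo readout of ATP-to-ADP conversion. Conditions: 25 nM enzyme, 300 μM ATP, 3 μM dephospho-MBP, pH 7.3 HEPES buffer with 20 mM MgCl2; 30 min compound pre-incubation, 150 min reaction. EC50 via four-parameter sigmoidal regression; assay floor ~25 nM.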

Sequence of RIPK1 (recombinant GST-RIPK1 kinase domain, residues 1-327) (Q13546 1-327): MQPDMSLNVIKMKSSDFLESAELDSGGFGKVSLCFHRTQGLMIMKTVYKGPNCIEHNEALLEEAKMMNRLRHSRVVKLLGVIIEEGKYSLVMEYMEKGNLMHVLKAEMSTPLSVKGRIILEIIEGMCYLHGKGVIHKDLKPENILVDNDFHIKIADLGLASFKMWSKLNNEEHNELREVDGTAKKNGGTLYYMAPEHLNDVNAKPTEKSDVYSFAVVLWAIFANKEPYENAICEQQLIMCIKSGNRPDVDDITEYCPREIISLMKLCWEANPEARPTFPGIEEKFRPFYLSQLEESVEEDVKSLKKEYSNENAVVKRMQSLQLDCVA

SMILES | pEC50
NC(=O)c1ccc(N2CCC3(CC2)O[C@@H]2CC[C@@H](c4ccccc4)N2C3=O)nc1Cl [Example 4.201, 2-chloro-6-[(5′S,7a′R)-3′-oxo-5′-phenyltetrahydro-1H,3′H-spiro[piperidine-4,2′-pyrrolo[2,1-b] [1,3]oxazol]-1-yl]pyridine-3-carboxamide] | > 7.60
O=C1N2[C@@H](CC[C@H]2c2cc(F)cc(F)c2)OC12CN(c1cccc3ncnn13)C2 [Example 4.135, (5′S,7a′R)-5′-(3,5-difluorophenyl)-1-([1,2,4]triazolo[1,5-a]pyridin-5-yl)tetrahydro-3′H-spiro[azetidine-3,2′-pyrrolo[2,1-b] [1,3]oxazol]-3′-one] | 7.20
O=C(c1ccc(F)cc1)N1CCC2(CC1)O[C@@H]1CC[C@@H](c3cc(F)cc(F)c3)N1C2=O [Example 6.70, (5′S,7a′R)-5′-(3,5-difluorophenyl)-1-(4-fluorobenzene-1-carbonyl)tetrahydro-3′H-spiro[piperidine-4,2′-pyrrolo[2,1-b] [1,3]oxazol]-3′-one] | > 7.60
N#Cc1cccc(N2CCC3(CC2)O[C@@H]2CC[C@@H](c4ccccc4)N2C3=O)n1 [Example 4.29, 6-[(5′S,7a′R)-3′-oxo-5′-phenyltetrahydro-1H,3′H-spiro[piperidine-4,2′-pyrrolo[2,1-b] [1,3]oxazol]-1-yl]pyridine-2-carbonitrile] | > 7.60
Cc1ccc(F)c(C(=O)N2CCC3(CC2)O[C@@H]2CC[C@@H](c4cc(F)cc(F)c4)N2C3=O)c1 [Example 6.5, (5′S,7a′R)-5′-(3,5-difluorophenyl)-1-(2-fluoro-5-methyl-benzene-1-carbonyl) tetrahydro-3′H-spiro [piperidine-4,2′-pyrrolo[2,1-b][1,3]oxazol]-3′-one] | > 7.60
O=C1N2[C@@H](CC[C@H]2c2cc(F)cc(F)c2)OC12CCN(c1cccc3nccn13)CC2 [Example 13.5, (5′S,7a′R)-5′-(3,5-difluorophenyl)-1-(imidazo[1,2-a]pyridin-5-yl)tetrahydro-3′H-spiro[piperidine-4,2′-pyrrolo[2,1-b]oxazol]-3′-one, TFA salt] | 7.01
N#Cc1cc([C@@H]2CC[C@H]3OC4(CCN(c5ccnc6c(F)cnn56)CC4)C(=O)N32)ccc1F [Example 20.6, 2-fluoro-5-[(5′S,7a′R)-1-(3-fluoropyrazolo[1,5-a]pyrimidin-7-yl)-3′-oxotetrahydro-3′H-spiro[piperidine-4,2′-pyrrolo[2,1-b][1,3]oxazol]-5′-yl]benzonitrile] | > 7.60
CC1CC2(CCN1c1ccnc3ccnn13)O[C@@H]1CC[C@@H](c3ccccc3)N1C2=O (stereo partly drawn) [Example 4.231, (4R,5′S,7a′R)-2-methyl-5′-phenyl-1-(pyrazolo[1,5-a]pyrimidin-7-yl)tetrahydro-3′H-spiro[piperidine-4,2′-pyrrolo[2,1-b] [1,3]oxazol]-3′-one] | > 7.60
O=C(c1cc(I)c(I)c(I)c1)N1CCC2(CC1)O[C@@H]1CC[C@@H](c3cc(F)cc(F)c3)N1C2=O [Example 5.65, (5′S,7a′R)-5′-(3,5-difluoro-phenyl)-1-(3,4,5-triiodo-benzoyl)tetrahydro-3′H-spiro[piperidine-4,2′-pyrrolo[2,1-b]oxazol]-3′-one] | 6.61
C#Cc1ccc(C(=O)N2CCC3(CC2)O[C@@H]2CC[C@@H](c4cc(F)cc(F)c4)N2C3=O)cc1 [Example 5.27, (5′S,7a′R)-5′-(3,5-difluoro-phenyl)-1-(4-ethynyl-benzoyl)tetrahydro-3′H-spiro[piperidine-4,2′-pyrrolo[2,1-b]oxazol]-3′-one] | 6.77
Cc1ccnc(C(=O)N2CCC3(CC2)O[C@@H]2CC[C@@H](c4cc(F)cc(F)c4)N2C3=O)n1 [Example 6.88, (5′S,7a′R)-5′-(3,5-difluorophenyl)-1-(4-methylpyrimidine-2-carbonyl)tetrahydro-3′H-spiro[piperidine-4,2′-pyrrolo[2,1-b] [1,3]oxazol]-3′-one] | 6.87
O=C1N2[C@@H](CC[C@H]2c2cc(F)cc(F)c2)OC12CCN(c1ccc(Br)c3ncnn13)CC2 [Example 13.7, (5′S,7a′R)-1-(8-bromo-[1,2,4]triazolo[1,5-a]pyridin-5-yl)-5′-(3,5-difluorophenyl)tetrahydro-3′H-spiro[piperidine-4,2′-pyrrolo[2,1-b]oxazol]-3′-one] | > 7.60
N#CN1CCC2(CC1)O[C@@H]1CC[C@@H](c3cc(F)cc(F)c3)N1C2=O [Example 4.48, (5′S,7a′R)-5′-(3,5-difluorophenyl)-3′-oxotetrahydro-1H,3′H-spiro[piperidine-4,2′-pyrrolo[2,1-b] [1,3]oxazole]-1-carbonitrile] | 6.82
O=C(c1ccc2nscc2c1)N1CCC2(CC1)O[C@@H]1CC[C@@H](c3cc(F)cc(F)c3)N1C2=O [Example 6.42, (5′S,7a′R)-1-(2,1-benzothiazole-5-carbonyl)-5′-(3,5-difluorophenyl)tetra-hydro-3′H-spiro [piperidine-4,2′-pyrrolo[2,1-b][1,3]oxazol]-3′-one] | > 7.60
O=C1N2[C@@H](CC[C@H]2c2ccccc2)OC12CCN(c1cc(-c3ccc(F)cc3)c([N+](=O)[O-])cn1)CC2 [Example 4.208, (5′S,7a′R)-1-[4-(4-fluorophenyl)-5-nitropyridin-2-yl]-5′-phenyltetrahydro-3′H-spiro[piperidine-4,2′-pyrrolo[2,1-b] [1,3]oxazol]-3′-one] | 7.25
O=C1N2[C@@H](CC[C@H]2c2ccccc2)OC12CCN(c1ccnc3c(F)cnn13)CC2 [Example 4.1, (5′S,7a′R)-1-(3-fluoropyrazolo[1,5-a]pyrimidin-7-yl)-5′-phenyltetrahydro-3′H-spiro[piperidine-4,2′-pyrrolo[2,1-b]oxazol]-3′-one] | > 7.60
O=C(c1cccc(C2CC2)c1)N1CCC2(CC1)O[C@@H]1CC[C@@H](c3ccccc3)N1C2=O [Example 6.156, (5′S,7a′R)-1-(3-cyclopropylbenzene-1-carbonyl)-5′-phen-yltetrahydro-3′H-spiro[piperidine-4,2′-pyrrolo[2,1-b][1,3]oxazol]-3′-one] | > 7.60
O=C(c1ccccc1F)N1CCC2(CC1)O[C@@H]1CC[C@@H](c3cccc(F)c3)N1C2=O [Example 1.7, (5′S,7a′R)-1-(2-fluorobenzene-1-carbonyl)-5′-(3-fluorophenyl)tetrahydro-3′H-spiro[piperidine-4,2′-pyrrolo[2,1-b] [1,3]oxazol]-3′-one] | > 7.60
O=C(c1ccccc1)N1CCC2(CC1)O[C@@H]1CC[C@@H](c3ccccc3)N1C2=O [Example 1.3, (5′S,7a′R)-1-(benzenecarbonyl)-5′-phenyltetrahydro-3′H-spiro[piperidine-4,2′-pyrrolo[2,1-b] [1,3]oxazol]-3′-one] | > 7.60
Cc1ncc(C(=O)N2CCC3(CC2)O[C@@H]2CC[C@@H](c4cc(F)cc(F)c4)N2C3=O)cn1 [Example 6.77, (5′S,7a′R)-5′-(3,5-difluorophenyl)-1-(2-methylpyrimidine-5-carbonyl)tetrahydro-3′H-spiro[piperidine-4,2′-pyrrolo[2,1-b] [1,3]oxazol]-3′-one] | 6.24
N#Cc1cc(N2CCC3(CC2)O[C@@H]2CC[C@@H](c4cc(F)cc(F)c4)N2C3=O)ncn1 [Example 4.4, 6-[(5′S,7a′R)-5′-(3,5-difluorophenyl)-3′-oxotetrahydro-1H,3′H-spiro[piperidine-4,2′-pyrrolo[2,1-b] [1,3]oxazol]-1-yl]pyrimidine-4-carbonitrile] | > 7.60
O=C1N2[C@@H](CC[C@H]2c2cccc(F)c2)OC12CCN(c1cc(C(F)F)ncn1)CC2 [Example 4.52, (5′S,7a′R)-1-[6-(difluoromethyl)pyrimidin-4-yl]-5′-(3-fluorophenyl)tetrahydro-3′H-spiro[piperidine-4,2′-pyrrolo[2,1-b] [1,3]oxazol]-3′-one] | 7.16
CC(C)c1oncc1C(=O)N1CCC2(CC1)O[C@@H]1CC[C@@H](c3cc(F)cc(F)c3)N1C2=O [Example 6.49, (5′S,7a′R)-5′-(3,5-difluorophenyl)-1-[5-(propan-2-yl)-1,2-oxazole-4-carbonyl]-tetrahydro-3′H-spiro [piperidine-4,2′-pyrrolo[2,1-b][1,3]-oxazol]-3′-one] | 6.00
O=C1N2[C@@H](CC[C@H]2c2ccccc2)OC12CCN(c1ccc(-c3cc4n(n3)CCC4)c3ncnn13)CC2 [Example 21.18, (5′S,7a′R)-1-[8-(5,6-dihydro-4H-pyrrolo[1,2-b]pyrazol-2-yl)[1,2,4]triazolo[1,5-a]pyridin-5-yl]-5′-phenyltetrahydro-3′H-spiro[piperidine-4,2′-pyrrolo[2,1-b][l,3]oxazol]-3′-one] | > 7.60
CCOc1cnc(N2CCC3(CC2)O[C@@H]2CC[C@@H](c4cc(F)cc(F)c4)N2C3=O)nc1 [Example 4.57, (5′S,7a′R)-5′-(3,5-difluorophenyl)-1-(5-ethoxypyrimidin-2-yl)tetrahydro-3′H-spiro[piperidine-4,2′-pyrrolo[2,1-b] [1,3]oxazol]-3′-one] | 6.61
O=C1N2[C@@H](CC[C@H]2c2ccccc2)OC12CCN(c1ncc(-c3nccs3)cn1)CC2 [Example 21.12, (5′S,7a′R)-5′-phenyl-1-[5-(1,3-thiazol-2-yl)pyrimidin-2-yl]tetrahydro-3′H-spiro[piperidine-4,2′-pyrrolo[2,1-b][1,3]oxazol]-3′-one] | 7.60

Same assay, conditions: RIPK1 V0 Ec50, ADP-Glo; 25 nM GST-RIPK1, 300 μM ATP; assay lower limit ~25 nM

SMILES | pEC50
N#Cc1ccc(N2CCC3(CC2)O[C@@H]2CC[C@@H](c4cc(F)cc(F)c4)N2C3=O)cc1Cl [Example 4.20, 2-chloro-4-[(5′S,7a′R)-5′-(3,5-difluorophenyl)-3′-oxotetrahydro-1H,3′H-spiro[piperidine-4,2′-pyrrolo[2,1-b] [1,3]oxazol]-1-yl]benzonitrile] | > 7.60
